According to BindingDB's records for doi:10.1021/jm00057a007 (Kyowa Hakko Kogyo, 1993):
pIC50: −log10 of the molar value. Structures can show the parent of a compound that is named as a salt.

Columns and labels:
[1] = Inhibition of guinea pig acetylcholinesterase
[2] = Inhibition of guinea pig acetylcholinesterase

| SMILES | pIC50 [1] | pIC50 [2] |
| --- | --- | --- |
| CC1CCCN(Cc2ccc(CNCCN3CCN=C3C(C#N)C#N)o2)C1 (stereo unspecified) [2-[1-(2-{[5-(3-Methyl-piperidin-1-ylmethyl)-furan-2-ylmethyl]-amino}-ethyl)-imidazolidin-2-ylidene]-malononitrile] | 6.43 |  |
| CC1CCN(Cc2ccc(CNCCN3CCN=C3C(C#N)C#N)o2)CC1 [2-[1-(2-{[5-(4-Methyl-piperidin-1-ylmethyl)-furan-2-ylmethyl]-amino}-ethyl)-imidazolidin-2-ylidene]-malononitrile] |  | 6.54 |
| CN=C(NCCNCc1ccc(COC)o1)C(C#N)C#N [2-({2-[(5-Methoxymethyl-furan-2-ylmethyl)-amino]-ethylamino}-methylamino-methylene)-malononitrile] |  | < 4.70 |
| CCN(CC)Cc1ccc(CNCCN2CCN=C2C(C#N)C#N)o1 |  | 6.22 |
| CN(C)Cc1ccc(CNCCN2CCN=C2C[N+](=O)[O-])o1 [(5-Dimethylaminomethyl-furan-2-ylmethyl)-[2-(2-nitromethylene-imidazolidin-1-yl)-ethyl]-amine] |  | < 5.70 |
| CN(C)Cc1ccc(CNCCN2CCN=C2C(C#N)C#N)o1 [2-(1-{2-[(5-Dimethylaminomethyl-furan-2-ylmethyl)-amino]-ethyl}-imidazolidin-2-ylidene)-malononitrile] | 6.41 |  |
| CN=C(NCCNCc1ccc(CN(C(C)C)C(C)C)o1)C(C#N)C#N [2-{[2-({5-[(Diisopropylamino)-methyl]-furan-2-ylmethyl}-amino)-ethylamino]-methylamino-methylene}-malononitrile] |  | 5.68 |
| CCN(CC)CCNC(=O)c1cc(Cl)c(N)cc1OC [4-amino-5-chloro-N-[2-(diethylamino)ethyl]-2-methoxy-benzamide;hydrochloride] |  | < 4.70 |
| N#CC(C#N)C1=NCCN1CCNCc1ccc(CN2CC=CCC2)o1 |  | 7.02 |
| CNc1c(NCCNCc2ccc(CN3CCCCC3)o2)c(=O)c1=O [3-Methylamino-4-{2-[(5-piperidin-1-ylmethyl-furan-2-ylmethyl)-amino]-ethylamino}-cyclobut-3-ene-1,2-dione] |  | 5.03 |
| CN=C(NCCNCc1ccc(CN2CCCCC2)o1)C(C#N)C#N |  | 6.08 |
| N#CC(C#N)C1=NCCN1CCNCc1ccc(CN2CCCC2)o1 [2-(1-{2-[(5-Pyrrolidin-1-ylmethyl-furan-2-ylmethyl)-amino]-ethyl}-imidazolidin-2-ylidene)-malononitrile] |  | 7.10 |
| N#CC(C#N)C1=NCCN1CCNCc1ccc(CN2CCC(O)CC2)o1 [2-[1-(2-{[5-(4-Hydroxy-piperidin-1-ylmethyl)-furan-2-ylmethyl]-amino}-ethyl)-imidazolidin-2-ylidene]-malononitrile] | 6.41 |  |
| CCN(C)Cc1ccc(CNCCN2CCN=C2C(C#N)C#N)o1 [2-{1-[2-({5-[(Ethyl-methyl-amino)-methyl]-furan-2-ylmethyl}-amino)-ethyl]-imidazolidin-2-ylidene}-malononitrile] |  | 6.37 |
| CC1CCCCN1Cc1ccc(CNCCN2CCN=C2C(C#N)C#N)o1 (stereo unspecified) [2-[1-(2-{[5-(2-Methyl-piperidin-1-ylmethyl)-furan-2-ylmethyl]-amino}-ethyl)-imidazolidin-2-ylidene]-malononitrile] |  | 6.27 |
| COc1cc(N)c(Cl)cc1C(=O)NCCNCc1ccc(CN(C)C)o1 [4-Amino-5-chloro-N-{2-[(5-dimethylaminomethyl-furan-2-ylmethyl)-amino]-ethyl}-2-methoxy-benzamide] |  | 5.51 |
| CN=C(NCCNCc1ccc(CN2CCCC2)o1)C(C#N)C#N [2-(Methylamino-{2-[(5-pyrrolidin-1-ylmethyl-furan-2-ylmethyl)-amino]-ethylamino}-methylene)-malononitrile] |  | 6.55 |
| COC1CCCN(Cc2ccc(CNCCN3CCN=C3C(C#N)C#N)o2)C1 (stereo unspecified) |  | 5.48 |
| N#CC(C#N)c1nc2ccccc2n1CCNCc1ccc(CN2CCCCC2)o1 [2-(1-{2-[(5-Piperidin-1-ylmethyl-furan-2-ylmethyl)-amino]-ethyl}-1,3-dihydro-benzoimidazol-2-ylidene)-malononitrile] |  | 7.14 |
| CN=C(NCCNCc1ccc(CN(C)C)o1)C(C#N)C#N [2-({2-[(5-Dimethylaminomethyl-furan-2-ylmethyl)-amino]-ethylamino}-methylamino-methylene)-malononitrile] |  | 6.20 |
| N#CC(C#N)C1=NCCN1CCNCc1ccc(CN2CCCC(O)C2)o1 (stereo unspecified) [2-[1-(2-{[5-(3-Hydroxy-piperidin-1-ylmethyl)-furan-2-ylmethyl]-amino}-ethyl)-imidazolidin-2-ylidene]-malononitrile] | 6.43 |  |
| N#CC(C#N)C1=NCCN1CCNCc1ccc(CN2CCSCC2)o1 [2-(1-{2-[(5-Thiomorpholin-4-ylmethyl-furan-2-ylmethyl)-amino]-ethyl}-imidazolidin-2-ylidene)-malononitrile] |  | 5.82 |
| N#CC(C#N)C1=NCCN1CCNCc1ccc(CN2CCOCC2)o1 [2-(1-{2-[(5-Morpholin-4-ylmethyl-furan-2-ylmethyl)-amino]-ethyl}-imidazolidin-2-ylidene)-malononitrile] |  | 4.96 |
| N#CC(C#N)C1=NCCN1CCNCc1ccc(CN2CCCCCC2)o1 |  | 6.92 |
| N#CC(C#N)C1=NCCN1CCNCc1ccc(CN2CCCCC2)o1 [2-(1-{2-[(5-Piperidin-1-ylmethyl-furan-2-ylmethyl)-amino]-ethyl}-imidazolidin-2-ylidene)-malononitrile] |  | 7.52 |
| O=c1[nH]c2ccccc2n1CCNCc1ccc(CN2CCCCC2)o1 [1-{2-[(5-Piperidin-1-ylmethyl-furan-2-ylmethyl)-amino]-ethyl}-1,3-dihydro-benzoimidazol-2-one] |  | 5.92 |
